# Data published in patent US7357944B2, “Liposomal analgesic drug compositions prepared in GMV using an ammonium sulfate gradient” (New York University, priority 1998, dated 2008).
# Like-named read-outs stand apart in the source and are kept apart here.
# Key:
# [1] = BUP partition between octanol and aqueous ammonium sulfate at various pH; type: physicochemical; conditions: for logD: octanol/aqueous ammonium sulfate, read-out: BUP octanol/(NH4)2(SO4) partition coefficient (converted)
# [2] = pH-dependent aqueous solubility of BUP in 250 mM ammonium sulfate; type: physicochemical; conditions: more concentrated solutions, pH higher than about 6
# Description: In the present case, the liposomes were incubated with a 50 mg/ml solution of BUP HCl for 45 minutes at 60° C. During this process, the extraliposomal pH should be maintained at a pH less than about 6, e.g. about 5.5, to ensure BUP solubility and prevent precipitation. […] The data was produced by adding various levels of BUP, as indicated, to 250 mM ammonium sulfate at differing pH's. The samples were vortexed and centrifuged, and the amount of dissolved BUP in the supernatant was determined. […] Again, aqueous solubility substantially decreases between pH 6 and 8.
# [3] = tested on: male Swiss-Webster mice; assay: Analgesia (sensory block) after subcutaneous injection, response to cutaneous electrical stimulation; type: in vivo; conditions: 0.15 ml at 0.5%
# Description: Analgesia was assessed in male Swiss-Webster mice, as described in Example 2, using response to cutaneous electrical stimulation. Prior to administering analgesic, the control vocalization threshold (current required to produce a vocalization response) was determined.
# For testing, 150 μl of test solution was injected subcutaneously over the abdomen, and sensory block was assessed at regular intervals, i.e., 15 min for 0.5% BUP formulations and 30 min for 1% and 2% formulations. Failure to vocalize in response to the threshold current was taken as evidence of analgesia. Testing was terminated when two successive stimuli provoked a vocalization. Duration of analgesia was taken as the time from injection to the last stimulus at which no vocalization occurred.
# (§1) Analgesia regressed within two hours (see FIG. 13).
# The Institutional Animal Care and Use Committee approved all experiments. Male Swiss-Webster mice weighing 28±3 g were used. Animals had free access to food and water, and were maintained on a 12 hour dark-light cycle. Prior to testing, the hair overlying the abdomen was shaved. Analgesia was assessed using response to cutaneous electrical stimulation. […] The vocalization threshold was assessed prior to testing, and testing was carried out as described above.
# [4] = tested on: mice; conditions: mouse, in vivo
# Description: as §1
# To determine the effect on overall body temperature of this treatment, the rectal temperature was measured in all animals cooled over the site of injection (ipsalateral) or over the contralateral abdomen, using both GMV-encapsulated bupivacaine and nonencapsulated (plain) bupivacaine. […] For FIG. 14A, cooling was initiated at zero hours (with administration) and discontinued at nine hours; for FIG. 14B, cooling was initiated at zero hours and discontinued at one hour. There were no significant differences observed as a function of the site of cooling. […] Animals in the GMV group (FIG. 14A) returned to baseline body temperature within about 10 minutes after cessation of cooling.
# [5] = tested on: mice; conditions: mouse, in vivo, sc
# Description: (§2) In a control group, mice were injected with 0.15 ml nonliposomal bupivacaine at a concentration of 0.5%, the highest normally tolerated. Cooling was applied either over the injection site or over the abdomen contralateral to the injection site.
# [6] = tested on: mice; assay: Tolerability of BUP concentration injected subcutaneously; conditions: 0.15 ml injected
# Description: as §2
structure (smiles),measurement,setting,value
"CCCCN1CCCCC1C(=O)Nc1c(C)cccc1C (stereo not drawn) [BUP, bupivacaine]",logD,[1]; pH 2,0.0253
same,logD,[1]; pH 4,-0.42
same,logD,[1]; pH 6,-0.456
same,logD,[1]; pH 8,1.18
same,"BUP, mg/ml in (NH4)2(SO4)",[1]; pH 2,2.30 mg/mL
same,"BUP, mg/ml in octanol",[1]; pH 2,2.45 mg/mL
same,"BUP, mg/ml in (NH4)2(SO4)",[1]; pH 4,3.32 mg/mL
same,"BUP, mg/ml in octanol",[1]; pH 4,1.25 mg/mL
same,"BUP, mg/ml in (NH4)2(SO4)",[1]; pH 6,3.62 mg/mL
same,"BUP, mg/ml in octanol",[1]; pH 6,1.28 mg/mL
same,"BUP, mg/ml in (NH4)2(SO4)",[1]; pH 8,0.32 mg/mL
same,"BUP, mg/ml in octanol",[1]; pH 8,4.90 mg/mL
same,aqueous solubility of BUP (FIG. 2),[2],large amounts of BUP precipitated
same,time in which analgesia regressed,"[3]; s.c., mice, with or without cooling (FIG. 13)",two
same,effect of skin cooling (about 22° C.) on analgesia,[3]; cooling at injection site or contralateral vs no cooling,no difference
same,delayed return to normal body temperature after cessation of cooling,[4],25 to 35 min
same,toxicity,[5],proved toxic
same,highest concentration normally tolerated,[6],0.5%
